Data on one molecule can be found in ChEMBL document CHEMBL5120862, “Novel non-covalent LSD1 inhibitors endowed with anticancer effects in leukemia and solid tumor cellular models” (Eur J Med Chem, 2022).

Calls of active or inactive are those of the source. The calls are words filed in the database; no cut-off is given here.

Series [1] in a line: Cytotoxicity against HMEC cells assessed as residual cell viability at 0.5 uM incubated for 72 hrs by MTT assay relative to control. In kind it is toxicity, cell-based. As to conditions: human, read-out: Activity.
Series [2] concerns SJRH30. The experiment in a line: Antiproliferative activity against human Rh30 cells assessed as inhibition of cell growth incubated for 24 hrs. In kind it is functional, cell-based. As to conditions: SJRH30, 24 h.
The next series has as its system RD. Description: Antiproliferative activity against human RD cells assessed as inhibition of cell growth incubated for 144 hrs. The series is classed as functional, cell-based.
Series [3] is described as follows: Cytotoxicity against human derived mesenchymal stem cells assessed as residual cell viability at 1.25 uM measured after 72 hrs relative to control. In kind it is toxicity, cell-based. The following applies: read-out: Activity.
Series [4] has as its target T1, Histone-lysine N-methyltransferase EHMT2 (Homo sapiens, UniProt Q96KQ7).
T1 sequence (Q96KQ7 whole entry): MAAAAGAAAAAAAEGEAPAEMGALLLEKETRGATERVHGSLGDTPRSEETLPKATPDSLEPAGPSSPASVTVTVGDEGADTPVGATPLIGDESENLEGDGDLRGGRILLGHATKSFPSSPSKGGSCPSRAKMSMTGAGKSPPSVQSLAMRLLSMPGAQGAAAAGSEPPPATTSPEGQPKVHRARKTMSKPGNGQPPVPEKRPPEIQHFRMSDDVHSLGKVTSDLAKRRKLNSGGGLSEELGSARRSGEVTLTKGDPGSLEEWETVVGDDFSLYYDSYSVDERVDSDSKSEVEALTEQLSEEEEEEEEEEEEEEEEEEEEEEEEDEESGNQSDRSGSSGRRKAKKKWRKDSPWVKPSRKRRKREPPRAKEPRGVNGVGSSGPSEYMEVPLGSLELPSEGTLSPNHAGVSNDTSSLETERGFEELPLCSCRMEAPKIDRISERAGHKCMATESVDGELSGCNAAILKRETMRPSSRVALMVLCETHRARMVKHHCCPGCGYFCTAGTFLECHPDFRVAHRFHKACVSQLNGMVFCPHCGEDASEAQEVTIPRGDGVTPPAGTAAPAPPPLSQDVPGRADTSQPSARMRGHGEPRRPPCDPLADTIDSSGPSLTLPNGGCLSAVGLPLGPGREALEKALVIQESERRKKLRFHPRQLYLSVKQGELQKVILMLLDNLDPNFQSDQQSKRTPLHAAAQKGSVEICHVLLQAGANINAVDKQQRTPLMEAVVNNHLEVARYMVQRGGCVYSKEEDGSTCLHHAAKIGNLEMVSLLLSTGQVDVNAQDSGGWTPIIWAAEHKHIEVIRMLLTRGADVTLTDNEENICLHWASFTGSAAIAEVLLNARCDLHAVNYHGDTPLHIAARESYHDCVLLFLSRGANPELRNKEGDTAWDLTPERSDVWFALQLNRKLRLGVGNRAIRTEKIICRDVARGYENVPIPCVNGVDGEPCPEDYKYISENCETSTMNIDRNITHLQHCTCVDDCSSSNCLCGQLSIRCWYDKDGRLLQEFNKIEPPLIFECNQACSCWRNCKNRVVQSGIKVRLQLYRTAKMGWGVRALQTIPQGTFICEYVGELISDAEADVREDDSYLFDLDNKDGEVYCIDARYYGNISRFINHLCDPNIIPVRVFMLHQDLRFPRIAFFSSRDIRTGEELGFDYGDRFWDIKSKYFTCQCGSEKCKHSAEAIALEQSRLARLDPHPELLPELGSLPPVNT
The experiment in a line: Inhibition of G9a (unknown origin) assessed as reduction in substrate methylation using histone H3 and SAM as substrate measured after 15 to 60 mins by microfluidic capillary electrophoresis analysis.

The subject of series [5] is THP-1. Description: Antiproliferative activity against human THP-1 cells assessed as inhibition of cell growth incubated for 144 hrs by CellTiter-Glo luminescent cell viability assay. The series is classed as functional, cell-based. As to conditions: THP-1, 144 h. Background: In ATP-based viability assays light output follows the ATP content of the culture.
The next series concerns MDA-MB-231. Description: Antiproliferative activity against human MDA-MB-231 cells assessed as inhibition of cell growth measured after 72 hrs by MTT assay. In kind it is functional, cell-based. As to conditions: MDA-MB-231, 72 h. (In general: Tetrazolium assays rely on reduction of a dye to a coloured formazan, in cell work by metabolically active cells.)
Series [6] relates to THP-1. The experiment in a line: Antiproliferative activity against human THP-1 cells assessed as inhibition of cell growth incubated for 24 hrs by CellTiter-Glo luminescent cell viability assay. As to conditions: THP-1, 24 h. In kind it is functional, cell-based.
Series [7] can be described thus: Cytotoxicity against HMEC cells assessed as residual cell viability at 1 uM incubated for 72 hrs by MTT assay relative to control. In kind it is toxicity, cell-based. As to conditions: human, read-out: Activity.
Series [8] concerns SJRH30. The experiment in a line: Induction of apoptosis in human Rh30 cells assessed as increase in caspase 3/7 level at 2 uM incubated for 24 hrs. In kind it is functional, cell-based.
The subject of series [9] is THP-1. Description: Antiproliferative activity against human THP-1 cells assessed as inhibition of cell growth incubated for 72 hrs by CellTiter-Glo luminescent cell viability assay. The series is classed as functional, cell-based. As to conditions: THP-1, 72 h.
In series [10] the target is Histone-lysine N-methyltransferase, H3 lysine-79 specific (Homo sapiens) (UniProt Q8TEK3). The experiment in a line: Inhibition of […] (unknown origin) using [3H]SAM and HeLa oligo nucleosomes as substrates at 100 uM incubated for 1 hr relative to control.
Histone-lysine N-methyltransferase, H3 lysine-79 specific (Homo sapiens), sequence (Q8TEK3 whole entry, looked up): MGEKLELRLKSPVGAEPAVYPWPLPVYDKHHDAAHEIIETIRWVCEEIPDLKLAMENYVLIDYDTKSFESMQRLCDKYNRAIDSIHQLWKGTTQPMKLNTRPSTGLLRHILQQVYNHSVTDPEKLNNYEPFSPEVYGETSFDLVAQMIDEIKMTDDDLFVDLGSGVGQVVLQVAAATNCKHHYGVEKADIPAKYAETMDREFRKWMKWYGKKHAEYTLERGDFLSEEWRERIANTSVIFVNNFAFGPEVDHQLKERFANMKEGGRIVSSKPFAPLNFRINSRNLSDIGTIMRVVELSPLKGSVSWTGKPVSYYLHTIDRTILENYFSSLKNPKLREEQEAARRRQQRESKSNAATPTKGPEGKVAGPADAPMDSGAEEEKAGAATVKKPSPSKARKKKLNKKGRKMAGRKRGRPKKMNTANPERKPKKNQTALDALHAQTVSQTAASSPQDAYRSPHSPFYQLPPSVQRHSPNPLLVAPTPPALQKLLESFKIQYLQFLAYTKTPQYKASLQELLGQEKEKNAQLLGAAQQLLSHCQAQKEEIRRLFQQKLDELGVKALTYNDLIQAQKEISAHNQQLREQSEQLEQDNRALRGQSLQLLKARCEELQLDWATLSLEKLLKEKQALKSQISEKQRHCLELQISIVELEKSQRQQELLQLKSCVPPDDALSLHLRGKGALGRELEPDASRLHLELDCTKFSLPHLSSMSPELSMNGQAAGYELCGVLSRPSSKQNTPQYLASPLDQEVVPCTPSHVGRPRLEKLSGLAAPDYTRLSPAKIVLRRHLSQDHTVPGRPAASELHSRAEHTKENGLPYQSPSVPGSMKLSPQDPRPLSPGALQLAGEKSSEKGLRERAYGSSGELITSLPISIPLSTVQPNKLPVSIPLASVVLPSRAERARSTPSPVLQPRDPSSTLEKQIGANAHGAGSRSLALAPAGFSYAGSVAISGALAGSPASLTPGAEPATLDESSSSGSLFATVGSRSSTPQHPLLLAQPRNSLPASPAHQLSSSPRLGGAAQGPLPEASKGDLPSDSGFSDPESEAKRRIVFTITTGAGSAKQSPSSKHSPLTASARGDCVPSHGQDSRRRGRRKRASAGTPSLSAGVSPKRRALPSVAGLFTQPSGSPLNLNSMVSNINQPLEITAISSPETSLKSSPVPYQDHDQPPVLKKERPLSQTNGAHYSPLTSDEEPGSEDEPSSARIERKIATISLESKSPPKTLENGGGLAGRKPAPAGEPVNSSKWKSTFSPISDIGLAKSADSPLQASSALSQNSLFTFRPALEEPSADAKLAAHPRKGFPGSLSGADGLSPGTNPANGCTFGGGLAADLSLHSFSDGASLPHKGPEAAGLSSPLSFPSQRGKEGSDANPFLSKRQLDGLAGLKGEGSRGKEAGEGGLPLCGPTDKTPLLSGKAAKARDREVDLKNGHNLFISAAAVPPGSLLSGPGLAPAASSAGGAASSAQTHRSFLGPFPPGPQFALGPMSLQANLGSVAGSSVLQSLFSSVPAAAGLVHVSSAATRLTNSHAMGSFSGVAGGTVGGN
Series [11] has as its system MV4-11. Description: Induction of apoptosis in human MV4-11 cells assessed as accumulation of cells at sub-G1 phase incubated for 24 hrs. In kind it is functional, cell-based. The following applies: dose 0.2-25 µM, DDE = dose-dependent effect.
Series [12] relates to SJRH30. The experiment in a line: Antiproliferative activity against human Rh30 cells assessed as inhibition of cell growth incubated for 72 hrs. In kind it is functional, cell-based. The following applies: SJRH30, 72 h.
Series [13] deals with MV4-11. Description: Antiproliferative activity against human MV4-11 cells assessed as inhibition of cell growth at 0.2 to […] incubated for 72 hrs by trypan blue staining based analysis. The series is classed as functional. The following applies: dose 0.2-2.5 µM.
Series [14] can be described thus: Cytotoxicity against human AHH-1 cells assessed as residual cell viability at 1 uM measured after 72 hrs by MTT assay relative to control. The following applies: read-out: Activity. The series is classed as toxicity, cell-based.
The target in series [15] is Histone-lysine N-methyltransferase EZH2 (Homo sapiens) (UniProt Q15910). Description: Inhibition of EZH2 (unknown origin) using [3H]SAM and chicken core histone as substrates at 100 uM incubated for 1 hr relative to control.
Histone-lysine N-methyltransferase EZH2 (Homo sapiens), sequence (Q15910 whole entry, looked up): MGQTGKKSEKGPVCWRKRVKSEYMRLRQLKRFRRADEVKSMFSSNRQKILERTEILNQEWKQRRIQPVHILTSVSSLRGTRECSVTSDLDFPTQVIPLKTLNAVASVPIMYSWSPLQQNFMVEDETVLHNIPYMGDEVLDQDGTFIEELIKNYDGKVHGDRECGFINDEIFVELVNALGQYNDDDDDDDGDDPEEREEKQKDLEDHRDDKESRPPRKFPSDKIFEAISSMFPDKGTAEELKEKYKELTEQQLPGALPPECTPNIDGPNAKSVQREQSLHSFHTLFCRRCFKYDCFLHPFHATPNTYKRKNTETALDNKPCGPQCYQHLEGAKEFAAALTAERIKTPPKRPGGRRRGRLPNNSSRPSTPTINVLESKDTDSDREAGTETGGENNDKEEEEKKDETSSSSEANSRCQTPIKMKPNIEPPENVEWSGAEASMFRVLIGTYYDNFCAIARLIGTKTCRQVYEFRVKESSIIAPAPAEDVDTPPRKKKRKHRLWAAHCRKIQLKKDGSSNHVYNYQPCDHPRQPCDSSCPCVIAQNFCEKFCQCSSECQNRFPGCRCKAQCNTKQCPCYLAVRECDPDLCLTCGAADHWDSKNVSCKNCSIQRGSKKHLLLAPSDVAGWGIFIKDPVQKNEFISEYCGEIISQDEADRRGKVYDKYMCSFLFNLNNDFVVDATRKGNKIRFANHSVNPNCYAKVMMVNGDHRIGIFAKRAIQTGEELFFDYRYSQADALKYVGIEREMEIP

One may read the IC50 as the concentration that gives 50% inhibition. By Ki is commonly meant the dissociation constant of the complex between target and ligand, obtained from inhibition or displacement. The term inhibition denotes the relative decrease from the control value, in per cent. Consider `COc1cc2c(NC3CCN(Cc4ccccc4)CC3)nc(NCCCN(C)C)nc2cc1OCc1ccccc1`, for which the viability at 72 h, 0.5 µM in [1] was determined as 93%. The IC50 was 1240 nM with SJRH30 [2]; 730 nM in the series on RD; 130 nM in the series on THP-1 [5]; 400 nM in the series on MDA-MB-231; 270 nM in the series on THP-1 [6]; 170 nM with THP-1 [9]. The IC50 in the series with SJRH30 [12] came to 960 nM. Besides, in series [3], the viability at 72 h, 1.25 µM stood at 92%. Moreover, the Ki in [4] is 39400 nM. Moreover, the viability at 72 h, 1 µM is 76% in series [7] and 90% in series [14]. The result in the series on SJRH30 [8] was Active. In addition, the figures for the inhibition in [10] and in [15] were 22.6% and 1.8%, respectively. Besides, in the series with MV4-11 [11], the Activity entry was “Dde”. In addition, the inhibition result in the series with MV4-11 [13] was “Active”.
